From PubChem BioAssay (NCI) come the findings set out here.

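Step 1: Grow cells in 96-well plates. Step 2: Expose to compound for 48 hours at 5 concentrations. Step 3: Interpolate endpoints linearly; if unreached, use highest concentration. GI50 marks 50% less growth. The concentration for full growth arrest is given as TGI.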 Where a SMILES comes first, the peptide text is derived from it.

Holding throughout (assay): NCI tumour cell line growth inhibition, 48 h
For test [1], the system named is SNB-19 CNS.
Test [2] concerns MALME-3M melanoma.
Test [3] deals with BT-549 breast.
For test [4], the system named is HOP-62 NSCLC.
Test [5] concerns SF-268 CNS.
Test [6] relates to HCT-116 colon.
Test [7] concerns SK-MEL-2 melanoma.
The test system of test [8] is COLO 205 colon.
Test [9] deals with NCI-H23 lung.
Test [10] has as its system A498 renal.

As for `COC(Cc1cc(C(O)(c2ccc(C(C)(C)C)cc2)c2cc(CC(OC)(c3cc(C(OC)(c4ccc(C(C)(C)C)cc4)c4ccc(C(C)(C)C)cc4)c(C)cc3C)c3cc(C(OC)(c4ccc(C(C)(C)C)cc4)c4ccc(C(C)(C)C)cc4)c(C)cc3C)c(C)cc2C)c(C)cc1C)(c1cc(C(OC)(c2ccc(C(C)(C)C)cc2)c2ccc(C(C)(C)C)cc2)c(C)cc1C)c1cc(C(OC)(c2ccc(C(C)(C)C)cc2)c2ccc(C(C)(C)C)cc2)c(C)cc1C`, the TGI in test [1], in test [2], in test [3], in test [4], in test [5] and in test [6] was more than 75 µM throughout. Moreover, the TGI in test [7], in [8], in [9] and in [10] was more than 75 µM throughout.
For the compound `CC(C)(C)c1ccc(NS(=O)(=O)c2ccc(N)cc2)cc1`, the TGI was more than 100 µM in test [1]; 39.6 µM in test [2]; 54.8 µM in [3]; 13.7 µM in [4]; 78.2 µM in test [5]; 34.7 µM in test [6]. The TGI in test [7] amounted to 36.5 µM; in test [8], 29.6 µM; in [9], 67.9 µM; in test [10] it was 46.4 µM.
Take `Cc1cc(C)n(CN(CCCCO)Cn2nc(C)cc2C)n1`: the TGI in test [1] is more than 100 µM; in [2], 57.3 µM; in test [3], 71.2 µM; in test [4], 47.6 µM; in test [5], 65.2 µM; in [6], 36.4 µM. Besides, the TGI in test [7] is 41.7 µM; in [8], 31.7 µM; in [9] it was 50.6 µM; in test [10], more than 100 µM.
As for `COc1ccc2c(c1)C(=O)c1c-2n(CCCN=[N+]=[N-])c(=O)c2cc([N+](=O)[O-])ccc12`, the GI50 was 0.422 µM in test [2], less than 0.001 µM in [5], 14.5 µM in [7] and 0.244 µM in test [9]. Moreover, the TGI was 9.88 µM in [2]; 1.3 µM in test [3]; 9.11 µM in test [6]; 39.1 µM in test [7]; more than 100 µM in [8]; 18 µM in test [9].
Regarding `O=S(=O)(O)c1ccc(N=Nc2ccc(N=Nc3c(O)ccc4ccc(S(=O)(=O)O)cc34)cc2)cc1`, the TGI in test [1], in test [2], in [3], in test [4], in [5] and in [6] was more than 100 µM each time. Further, the TGI in [7], in test [8] and in [9] was more than 100 µM throughout.
Take `O=C(N/N=C\c1ccc(N(CCCl)CCCl)cc1)c1cccnc1`: the GI50 is 45 µM in test [1]; 55 µM in [2]; 19.7 µM in test [3]; 31.5 µM in test [4]; 27 µM in test [5]; 51 µM in test [6]. Also, the GI50 is more than 100 µM in test [7], more than 100 µM in test [8], 15.8 µM in test [9] and 42.2 µM in [10]. Moreover, the TGI in test [1], in test [2], in test [3], in test [4], in [5] and in test [6] was more than 100 µM throughout. In addition, the TGI in [7], in test [8], in test [9] and in [10] was more than 100 µM each time.
As to `CCOC(=O)NC(=O)c1cn(CCN(CCO)C(=O)NCCCCCCNC(=O)N(CCO)CCn2cc(C(=O)NC(=O)OCC)c(=O)[nH]c2=O)c(=O)[nH]c1=O`, the TGI in test [1], in test [2], in test [4], in [5], in [6] and in [7] was more than 100 µM each time. Also, the TGI in [8], in test [9] and in test [10] was more than 100 µM each time.
Regarding `CCCC[n+]1ccn(-c2nc3ccccc3n2C)c1`, the TGI in [1], in test [2], in [4], in test [6], in test [7] and in test [9] was more than 100 µM throughout.
With `C/C=C(\C)C(=O)OC1C2C(C)=CC(=O)C(O)C2(C)C2C3(O)OCC24C1OC(=O)C(OC(C)=O)C4C(C)C3O` (stereo not given), the TGI in test [4] turned out to be 0.0415 µM; in test [5], 0.0887 µM; in [6] it was 0.875 µM; in test [7], 0.073 µM; in test [8], 0.229 µM; in [9] it was 0.266 µM. In test [10], the TGI worked out at 0.147 µM.
For the compound `CC1=C/C(=N\NS(=O)(=O)c2ccc([N+](=O)[O-])cc2)CC(C)(C)C1`, the TGI in [1], in test [2], in [4], in [5], in test [6] and in test [7] was more than 100 µM each time. Besides, the TGI in test [8], in test [9] and in [10] was more than 100 µM throughout.
On to `COc1cc(/C=C2\C(=O)Nc3ccc(Cl)cc32)cc(OC)c1OC`, for which the GI50 is 24.8 µM in test [1]; 32 µM in test [2]; 22.3 µM in [3]; 8.99 µM in test [5]; 31.9 µM in test [7]; 8.01 µM in test [8]. The GI50 in test [9] was 12.9 µM; in test [10], 23.2 µM. The TGI is more than 100 µM in [1]; more than 100 µM in test [2]; 92.3 µM in test [3]; more than 100 µM in test [5]; more than 100 µM in [7]; more than 100 µM in test [8]. The figures for the TGI in [9] and in test [10] were 39.2 µM and 72.4 µM, respectively.
As to `O=C([O-])c1ccccc1Nc1ccccc1C(=O)[O-].[OH3+].[Zn+2]`, the TGI was 30.7 µM in test [1]; 50.5 µM in [2]; more than 58.5 µM in test [4]; 40.2 µM in test [5]; more than 78.2 µM in test [6]; 40.4 µM in [7]. For the same compound, the TGI in [8] was more than 75.3 µM; in test [9] it was 28.9 µM; in test [10], 44.7 µM.
With `COc1cc2c(c(OC)c1OC)-c1ccc(OC)c(=O)cc1C(NC(=O)CCCCCNc1ccc(N=[N+]=[N-])cc1[N+](=O)[O-])CC2` (stereo not given), the TGI in test [2] was 26.1 µM; in test [4], more than 31.6 µM; in [5], 10.3 µM; in test [6], less than 0.0105 µM; in test [7], less than 0.01 µM; in test [8], less than 0.01 µM. The same compound displayed a TGI in [9] of more than 100 µM.
`N#CC1(C#N)C(=O)c2ccncc2C1=O`: the TGI in test [1], in test [2], in [3], in test [5], in test [6] and in test [7] was more than 100 µM in each case. For the same compound, the TGI in [8], in test [9] and in [10] was more than 100 µM throughout.
Regarding `CCCCC1Nc2ccccc2-c2ccnc(Cl)c21` (stereo not given), the TGI in test [1] was 77.7 µM; in test [2], 51 µM; in [3], 42.6 µM; in [4], 53.3 µM; in test [5] it was 89.2 µM; in test [6] it was 32.3 µM. Further, the TGI in test [7] was 35.8 µM; in test [8], 36 µM; in test [9] it was 31.4 µM; in [10], 46.4 µM.
Consider `Brc1ccc2nc(-c3cccs3)nc(N3CCN(c4ccccc4)CC3)c2c1`, for which the TGI in [1], in [2], in test [3], in test [4], in test [5] and in test [6] was more than 100 µM throughout. Besides, the TGI in test [7], in test [8], in test [9] and in test [10] was more than 100 µM throughout.
As for `N=C1c2ccccc2C(=O)c2c(NCCNCCO)ccc(O)c21`, the TGI stood at 84.8 µM in test [1]; 35.8 µM in test [2]; 22.5 µM in test [4]; 14.2 µM in test [5]; 15 µM in [6]; 33.5 µM in test [7]. Besides, the TGI in [8] was 16.9 µM; in [9], 25.7 µM; in test [10] it was 33.8 µM.
Turning to `COC1=CC(c2ccc[nH]2)=N/C1=C\c1[nH]c(C)c(CC(=O)NCc2ccccc2)c1C`, the GI50 is 1.41 µM in test [3]; 1.51 µM in test [4]; 1.71 µM in test [7]; 1.38 µM in test [8]; 1.28 µM in test [10]. The TGI came to 3.06 µM in test [3]; 2.95 µM in test [4]; 3.29 µM in [7]; 2.98 µM in test [8]; 2.71 µM in test [10].
As to `CC(=O)NC(CS)C(=O)NC(CO)C(=O)NC(CO)C(=O)NC(Cc1c[nH]c2ccccc12)C(=O)N1CCCC1C(=O)NC(CO)C(=O)NC(Cc1c[nH]c2ccccc12)C(=O)NC(Cc1c[nH]cn1)C(=O)NC(CO)C(=O)NC(Cc1c[nH]c2ccccc12)C(=O)NCC(=O)NCC(=O)NC(C)C(=O)NC(CCC(N)=O)C(=O)NC(CCCCN)C(=O)NC(C)C(=O)NC(CCCNC(=N)N)C(=O)NC(CCCCN)C(N)=O` (stereo not given) (Ac-CSSWPSWHSWGGAQKARK-NH2; configuration not given here), the TGI in test [1] is more than 50 µM; in [2] it was 20.3 µM; in test [3] it was 41 µM; in [4], more than 50 µM; in test [5], 49.6 µM; in test [6], more than 50 µM. The TGI is more than 50 µM in test [7], 28.2 µM in test [8], 48.8 µM in test [9] and more than 50 µM in test [10].
With `COc1cc(-c2n/c(=C\c3c(O)[nH]c4ccccc34)cc3c2=Nc2ccccc2-3)ccc1F`, the GI50 in [1] was 4.94 µM; in [2] it was 4.38 µM; in [3], 4.07 µM; in test [4], 4.68 µM; in [5] it was 10.6 µM; in test [6], 4.09 µM. Moreover, the GI50 is 21.7 µM in test [7], 10.9 µM in test [8], 2.83 µM in test [9] and 40.4 µM in test [10]. For the same compound, the TGI in test [1] was 24.3 µM; in [2], 23.2 µM; in test [3], 18.1 µM; in [4], 17.3 µM; in [5], 44.2 µM; in [6], 21.6 µM. Moreover, the TGI was 62.2 µM in test [7], more than 100 µM in test [8], 17.6 µM in test [9] and more than 100 µM in test [10].
